Source: patent US20170266091A1, “Mouthwash Composition Comprising a Peroxide Source and an N-Acyl-L-Arginine Alkyl Ester Salt” (Colgate-Palmolive Company, priority 2014, published 2017)

Tested on: mixed-species bacterial culture (Actinomyces viscosus, Lactobacillus casei, Fusobacterium nucleatum subsp. polymorphum, Streptococcus oralis and Veillonella …)
Experiment: Short interval kill (SIK) test
Assay type: cell-based
Settings: thirty seconds treatment, Live/Dead staining
Description: The anti-microbial efficacy of mouthwash formulations according to the present invention was tested using short interval kill (SIK) test. The formulations tested were the same as those used in Example 2. 500 μl of a mixed-species bacterial culture (Actinomyces viscosus (ATCC#43146), Lactobacillus casei (ATCC#334), Fusobacterium nucleatum subsp. polymorphum (ATCC#10953), Streptococcus oralis (ATCC#35037) and Veillonella parvula (ATCC#17745)) were transferred to sterile 2 ml microcentrifuge tubes. The samples were centrifuged for 10 min at ˜21 000×g to pellet bacterial cells. […] The re-suspended samples were subsequently treated with 100 μl of mouthwash or control solution. Bacterial killing was stopped after thirty seconds by adding 1.3 ml of D/E Neutralization Buffer. Samples were centrifuged for 10 min at 10,000 rpm to pellet bacterial cells. […] Finally, the pelleted cells were suspended in 150 μl of sterile PBS and aliquots were transferred to each of three wells of a sterile 96-well plate. To quantify the viable bacteria left after treatment, the bacterial suspensions were stained using Invitrogen BacLight Live/Dead viability kit. This kit consists of two fluorescent dyes, propidium iodine and SYTO9. The first dye, propidium iodide, is a red fluorescent DNA stain that can only penetrate bacterial cells whose membranes have been permeabilized (i.e. those cells that are “dead”). The second dye, SYTO9, is a green fluorescent DNA dye that is able to stain all bacterial cells. The bacterial suspensions were stained by adding 50 μl of a solution containing the two dyes in equal amounts to each well of the 96-well plate. Plates were then incubated for 15 min at room temperature, protected from light. The fluorescence of the samples were measured at an excitation wavelength of 485 nm and emission wavelengths of 535 nm and 635 nm. The results are illustrated in Table 8, and are provided as the percentage of cells that are viable relative to a control treatment with PBS alone.

CCO [Ethanol 100%, Ethanol]
percentage of cells that are viable relative to PBS control, Run 1 (Run 1): 44%
percentage of cells that are viable relative to PBS control, Run 2 (Run 2): 47%
percentage of cells that are viable relative to PBS control, Run 3 (Run 3): 48%
percentage of cells that are viable relative to PBS control, Average (average of 3 runs): 46%
